For three compounds, IC50 results are on record in EP3666765A1, “CHROMENIC PHYTOCANNABINOIDS, THEIR SYNTHESIS AND USE IN TREATMENT OR PREVENTION OF DISEASE” (Emerald Health Biotechnology España,S.L.U., priority 2018, dated 2020).

The assay addresses T1, mono-acyl glycerol lipase (MAGL) (Homo sapiens, UniProt Q99685).
T1 construct: purchased Cayman Chemical
T1 sequence (Q99685 1-303): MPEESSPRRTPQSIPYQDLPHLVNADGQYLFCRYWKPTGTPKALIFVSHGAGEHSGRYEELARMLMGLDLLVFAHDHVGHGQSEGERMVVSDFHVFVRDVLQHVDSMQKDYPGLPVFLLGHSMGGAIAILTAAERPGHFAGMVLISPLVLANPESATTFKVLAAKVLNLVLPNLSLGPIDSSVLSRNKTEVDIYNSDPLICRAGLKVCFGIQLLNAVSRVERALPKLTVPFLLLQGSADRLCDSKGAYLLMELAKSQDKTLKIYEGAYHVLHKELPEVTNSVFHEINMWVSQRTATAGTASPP
Briefly: In vitro inhibition of mono-acyl glycerol lipase (Monoacylglycerol Lipase Inhibitor Screening Assay Kit, Cayman Chemical; colorimetric). The class given is biochemical. The settings on record: human recombinant enzyme; 5 min pre-incubation at room temperature (20 °C); substrate 4-nitrophenylacetate (236 µM), 30 min; absorbance at 412 nm; read-out: IC50 against MAGL. How it is done:
The ability of the compounds of the present invention to inhibit mono-acyl glycerol lipase (MAGL) was estimated using their IC50 value. MALG inhibition was measured using the Monoacylglycerol Lipase Inhibitor Screening Assay Kit (Cayman Chemical, USA). Briefly, in 96-well plate, samples and human recombinant enzyme were incubated for five minutes at room temperature (20 °C). After that, an ethanolic solution of 4-nitrophenylacetate (236 µM), as colorimetric substrate, was added to the wells and plates were incubated for 30 minutes at room temperature. Finally, absorbance was measured at 412 nm. JZL195 {(4-nitrophenyl)-4-[(3-phenoxyphenyl)methyl]piperazine-1-carboxylate, 5 µM} was used as a positive control. Background obtained was subtracted in each experimental value and the percentage of inhibition was established with the formula (Absorbance 100% Activity - Absorbance of the sample)/Absorbance 100% Activity. Table 1: MAGL inhibition (IC50) for compounds of the invention
Usually IC50 stands for the midpoint of a concentration-inhibition curve. As for `CCCCCC1=CC(=O)C2=C(OC(C)(C)C=C2)C1=O` [(B), 2,2-dimethyl-7-pentyl-chromene-5,8-dione], the IC50 came to 4.5 µM.

Consider `CCCC1=CC(=O)C2=C(OC(C)(CCC=C(C)C)C=C2)C1=O` (stereo not drawn) [(C), 2-methyl-2-(4-methylpent-3-enyl)-7-propyl-chromene-5,8-dione], for which the IC50 is 6.64 µM.

For the compound `CCCCCC1=CC(=O)C2=C(OC(C)(CCC=C(C)C)C=C2)C1=O` (stereo not drawn) [(A), 2-methyl-2-(4-methylpent-3-enyl)-7-pentyl-chromene-5,8-dione], the IC50 came out at 4.44 µM.
